This note sets out measurements from patent publication US20260022143A1, “Cyclic Peptide Inhibitors of IL-23” (JANSSEN PHARMACEUTICA NV, priority 2022, published 2026).

Structures can show the parent of a compound that is named as a salt. Starred links: 1 amine or outer side, 2 acyl side, 3 side chain; linkers in the order of their positions; H or OH if unused. Positions of bridges follow the written chain, without caps; N, C: chain ends. Non-standard residues stand in square brackets, D forms with d. Residues, ends and D or L forms follow the SMILES beside them. Groups on a side chain read outwards from the residue. *: point of attachment. X80 = COCC[N+](C)(C)CCCCc1cn(-c2ccc(C[C@H](N[*:1])C(=O)[*:2])cc2)nn1; Me3N+(CH2)2O(CH2)2O(CH2)2CO = C[N+](C)(C)CCOCCOCCC(=O)*; NH(CH2CH2O)2CH2CH2NMe3+ = C[N+](C)(C)CCOCCOCCN*; Trp(7-Me) = Cc1cccc2c(C[C@H](N)C(=O)O)c[nH]c12; Hexanoyl(6-NMe3+) = C[N+](C)(C)CCCCCC(=O)*; Lys(Me3) = C[N+](C)(C)CCCC[C@H](N)C(=O)O; γGlu = O=C(O)[C@H](CCC(=O)[*:2])N[*:1]; 2Nal = N[C@@H](Cc1ccc2ccccc2c1)C(=O)O; AEF = NCCOc1ccc(C[C@H](N)C(=O)O)cc1; dNMeY = CN[C@H](Cc1ccc(O)cc1)C(=O)O; X45 = COCC[N+](C)(C)CCc1cn(CC*)nn1; 3Pal = N[C@@H](Cc1cccnc1)C(=O)O; Myristoyl = CCCCCCCCCCCCCC(=O)*; Lys(Me) = CNCCCC[C@H](N)C(=O)O; Pen = CC(C)(S)[C@H](N)C(=O)O; αMeK = C[C@](N)(CCCCN)C(=O)O; Thp = NC1(C(=O)O)CCOCC1; X3 = C[N+](C)(C)CCCCC*; AEEA = NCCOCCOCC(=O)O; Me2NCH2CH2 = CN(C)CC*; Tfa = O=C(C(F)(F)F)*; Sar = CNCC(=O)O; X2 = CNCC*

The data set in a line: Exposed Polar Surface Area (EPSA). The data set is classed as physicochemical. Conditions: SFC on Chirex 3014 column; sample 1 mM DMSO stock; read-out: EPSA. The procedure, abridged: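 SFC retention on a Chirex 3014 (S-valine/(R)-1-(α-naphthyl)ethylamine) column at 35 °C, 4 mL/min, 14 MPa outlet, 5–60% methanol/20 mM ammonium formate gradient in CO2. Retention times converted to EPSA (Å²) via linear calibration with 8 standards; samples from 1 mM DMSO stock, run in duplicate.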
Take `COCC[N+](C)(C)CCCCc1cn(-c2ccc(C[C@H](NC(=O)[C@H]3NC(=O)[C@H](CCCCN(C)C(C)=O)NC(=O)[C@H](Cc4c[nH]c5c(C)cccc45)NC(=O)[C@H]([C@@H](C)O)NC(=O)[C@H](CC(=O)N(C)C)NC(=O)[C@@H](NC(=O)CCOCCOCC[N+](C)(C)C)C(C)(C)SSC3(C)C)C(=O)N[C@@H](Cc3ccc4ccccc4c3)C(=O)NC3(C(=O)N[C@@H](CCCCN(C)C(C)=O)C(=O)N[C@@H](CC(N)=O)C(=O)N[C@@H](Cc4cccnc4)C(=O)N(C)CC(=O)N(C)C)CCOCC3)cc2)nn1` [compound 337, cPEG3aCO-Pen(3)-N(N(Me)2)-T-7MeW-K(NMeAc)-Pen(3)-F(4TzlDMA4mPEG)-2Nal-THP-K(NMeAc)-N-3Pya-Sar-CON(Me)2] ({Me3N+(CH2)2O(CH2)2O(CH2)2CO}-[Pen]D(NMe2)T[Trp(7-Me)][Lys(Me)](Ac)[Pen][X80][2Nal][Thp][Lys(Me)](Ac)N[3Pal][Sar]-NMe2; disulfide 1-6): the EPSA amounted to 152 A^2. For `CC(=O)NCCCC[C@@H]1NC(=O)[C@H](Cc2c[nH]c3c(C)cccc23)NC(=O)[C@H]([C@@H](C)O)NC(=O)[C@H](CC(N)=O)NC(=O)[C@@H](NC(C)=O)C(C)(C)SSC(C)(C)[C@@H](C(=O)N[C@@H](Cc2ccc(OCCN)cc2)C(=O)N[C@@H](Cc2ccc3ccccc3c2)C(=O)N[C@@](C)(CCCCN)C(=O)N[C@@H](CCCCNC(C)=O)C(=O)N[C@@H](CC(N)=O)C(=O)N[C@@H](C(=O)N(C)[C@H](Cc2ccc(O)cc2)C(N)=O)[C@H](C)O)NC1=O` [compound 15, MeCO-Pen(3)-N-T-7MeW-K(Ac)-Pen(3)-AEF-2Nal-aMeK-K(Ac)-N-t-NMeDTyr-CONH2] (Ac-[Pen]NT[Trp(7-Me)]K(Ac)[Pen][AEF][2Nal][αMeK]K(Ac)N[dT][dNMeY]-NH2; disulfide 1-6 (inferred)) the value was 168 A^2. In the case of `COCC[N+](C)(C)CCc1cn(CCOc2ccc(C[C@H](NC(=O)[C@H]3NC(=O)[C@H](CCCCNC(C)=O)NC(=O)[C@H](Cc4c[nH]c5c(C)cccc45)NC(=O)[C@H]([C@@H](C)O)NC(=O)[C@H](CC(N)=O)NC(=O)[C@@H](NC(C)=O)C(C)(C)SSC3(C)C)C(=O)N[C@@H](Cc3ccc4ccccc4c3)C(=O)NC3(C(=O)N[C@@H](CCCCNC(C)=O)C(=O)N[C@@H](CC(N)=O)C(=O)N[C@@H](Cc4cccnc4)C(=O)N(C)CC(N)=O)CCOCC3)cc2)nn1` [compound 249] (Ac-[Pen]NT[Trp(7-Me)]K(Ac)[Pen]Y(X45)[2Nal][Thp]K(Ac)N[3Pal][Sar]-NH2; disulfide 1-6 (inferred)), the EPSA is 147 A^2. Consider `CNCCOc1ccc(C[C@H](NC(=O)[C@H]2NC(=O)[C@H](CCCCNC(C)=O)NC(=O)[C@H](Cc3c[nH]c4c(C)cccc34)NC(=O)[C@H]([C@@H](C)O)NC(=O)[C@H](CC(N)=O)NC(=O)[C@@H](NC(C)=O)C(C)(C)SSC2(C)C)C(=O)N[C@@H](Cc2ccc3ccccc3c2)C(=O)NC2(C(=O)N[C@@H](CCCCNC(C)=O)C(=O)N[C@@H](CC(N)=O)C(=O)N[C@@H](Cc3cccnc3)C(=O)N(C)CC(N)=O)CCOCC2)cc1` [compound 47] (Ac-[Pen]NT[Trp(7-Me)]K(Ac)[Pen]Y(X2)[2Nal][Thp]K(Ac)N[3Pal][Sar]-NH2; disulfide 1-6 (inferred)), for which the EPSA was 154 A^2.

Turning to `CC(=O)NCCCC[C@@H]1NC(=O)[C@H](Cc2c[nH]c3c(C)cccc23)NC(=O)[C@H]([C@@H](C)O)NC(=O)[C@H](CC(N)=O)NC(=O)[C@@H](NC(C)=O)C(C)(C)SSC(C)(C)[C@@H](C(=O)N[C@@H](Cc2ccc(OCCN)cc2)C(=O)N[C@@H](Cc2ccc3ccccc3c2)C(=O)N[C@@](C)(CCCCN)C(=O)N[C@@H](CCCCNC(C)=O)C(=O)N[C@@H](CC(N)=O)C(=O)N[C@H](CO)C(=O)N(C)[C@H](Cc2ccc(O)cc2)C(N)=O)NC1=O` [compound 19, MeCO-Pen(3)-N-T-7MeW-K(Ac)-Pen(3)-AEF-2Nal-aMeK-K(Ac)-N-s-NMeDTyr-CONH2] (Ac-[Pen]NT[Trp(7-Me)]K(Ac)[Pen][AEF][2Nal][αMeK]K(Ac)N[dS][dNMeY]-NH2; disulfide 1-6), the EPSA is 171 A^2.

Turning to `CC(=O)NCCCC[C@@H]1NC(=O)[C@H](Cc2c[nH]c3c(C)cccc23)NC(=O)[C@H]([C@@H](C)O)NC(=O)[C@H](CC(N)=O)NC(=O)[C@@H](NC(C)=O)C(C)(C)SSC(C)(C)[C@@H](C(=O)N[C@@H](Cc2ccc(OCCN)cc2)C(=O)N[C@@H](Cc2ccc3ccccc3c2)C(=O)NC2(C(=O)N[C@@H](CCC(=O)O)C(=O)N[C@@H](CC(N)=O)C(=O)N[C@@H](Cc3cccnc3)C(=O)N(C)CC(=O)NCCOCCOCC[N+](C)(C)C)CCOCC2)NC1=O` [compound 134] (Ac-[Pen]NT[Trp(7-Me)]K(Ac)[Pen][AEF][2Nal][Thp]EN[3Pal][Sar]-{NH(CH2CH2O)2CH2CH2NMe3+}; disulfide 1-6), the EPSA was 159 A^2. `CC(=O)N(C)CCCC[C@@H]1NC(=O)[C@H](Cc2c[nH]c3c(C)cccc23)NC(=O)[C@H]([C@@H](C)O)NC(=O)[C@H](CC(=O)N(C)C)NC(=O)[C@@H](NC(=O)[C@H](CCCC[N+](C)(C)C)NC(=O)C(F)(F)F)C(C)(C)SSC(C)(C)[C@@H](C(=O)N[C@@H](Cc2ccc(OCCN(C)C)cc2)C(=O)N[C@@H](Cc2ccc3ccccc3c2)C(=O)NC2(C(=O)N[C@@H](CCC(=O)O)C(=O)N[C@@H](CC(N)=O)C(=O)N[C@@H](Cc3cccnc3)C(=O)N(C)CC(=O)N(C)C)CCOCC2)NC1=O` [compound 93, CF3CO-K(Me)3-Pen(3)-N(N(Me)2)-T-7MeW-K(NMeAc)-Pen(3)-AEF(N(Me)2)-2Nal-THP-E-N-3Pya-Sar-CON(Me)2] (Tfa-[Lys(Me3)][Pen]D(NMe2)T[Trp(7-Me)][Lys(Me)](Ac)[Pen]Y(Me2NCH2CH2)[2Nal][Thp]EN[3Pal][Sar]-NMe2; disulfide 2-7): the EPSA came out at 151 A^2. The value for `CNC(=O)C[C@H](NC(=O)[C@H](CCCCNC(C)=O)NC(=O)C1(NC(=O)[C@H](Cc2ccc3ccccc3c2)NC(=O)[C@H](Cc2ccc(OCCN)cc2)NC(=O)[C@H]2NC(=O)[C@H](CCCCNC(C)=O)NC(=O)[C@H](Cc3c[nH]c4c(C)cccc34)NC(=O)[C@H]([C@@H](C)O)NC(=O)[C@H](CC(N)=O)NC(=O)[C@@H](NC(C)=O)C(C)(C)SSC2(C)C)CCOCC1)C(=O)N[C@@H](Cc1cccnc1)C(=O)N(C)CC(N)=O` [compound 48] (Ac-[Pen]NT[Trp(7-Me)]K(Ac)[Pen][AEF][2Nal][Thp]K(Ac)D(NHMe)[3Pal][Sar]-NH2; disulfide 1-6) was 184 A^2; that for `CC(=O)NCCCC[C@@H]1NC(=O)[C@H](Cc2c[nH]c3c(C)cccc23)NC(=O)[C@H]([C@@H](C)O)NC(=O)[C@H](CC(N)=O)NC(=O)[C@@H](NC(C)=O)C(C)(C)SSC(C)(C)[C@@H](C(=O)N[C@@H](Cc2ccc(OCCN)cc2)C(=O)N[C@@H](Cc2ccc3ccccc3c2)C(=O)NC2(C(=O)N[C@@H](CCCCNC(=O)CCCCC[N+](C)(C)C)C(=O)N[C@@H](CC(N)=O)C(=O)N[C@@H](Cc3cccnc3)C(=O)N(C)CC(N)=O)CCOCC2)NC1=O` [compound 85] (Ac-[Pen]NT[Trp(7-Me)]K(Ac)[Pen][AEF][2Nal][Thp]K(Hexanoyl(6-NMe3+))N[3Pal][Sar]-NH2; disulfide 1-6) was 151 A^2; that for `CCCCCCCCCCCCCC(=O)N[C@@H](CCC(=O)NCCOCCOCC(=O)NCCOCCOCC(=O)NCCCC[C@H](NC(=O)C1(NC(=O)[C@H](Cc2ccc3ccccc3c2)NC(=O)[C@H](Cc2ccc(OCCCCC[N+](C)(C)C)cc2)NC(=O)[C@H]2NC(=O)[C@H](CCCCN(C)C(C)=O)NC(=O)[C@H](Cc3c[nH]c4c(C)cccc34)NC(=O)[C@H]([C@@H](C)O)NC(=O)[C@H](CC(=O)N(C)C)NC(=O)[C@@H](NC(=O)CCOCCOCC[N+](C)(C)C)C(C)(C)SSC2(C)C)CCOCC1)C(=O)N[C@@H](CC(N)=O)C(=O)N[C@@H](Cc1cccnc1)C(=O)N(C)CC(=O)N(C)C)C(=O)O` [compound 402, cPEG3aCO-Pen(3)-N(N(Me)2)-T-7MeW-K(NMeAc)-Pen(3)-TMAPF-2Nal-THP-K(PEG2PEG2gEC14)-N-3Pya-Sar-CON(Me)2] ({Me3N+(CH2)2O(CH2)2O(CH2)2CO}-[Pen]D(NMe2)T[Trp(7-Me)][Lys(Me)](Ac)[Pen]Y(X3)[2Nal][Thp]K([AEEA-AEEA-γGlu-Myristoyl])N[3Pal][Sar]-NMe2; disulfide 1-6) was 156 A^2. The value for `CCCCCCCCCCCCCC(=O)N[C@@H](CCC(=O)NCCOCCOCC(=O)NCCOCCOCC(=O)NCCCC[C@@H]1NC(=O)[C@H](Cc2c[nH]c3c(C)cccc23)NC(=O)[C@H]([C@@H](C)O)NC(=O)[C@H](CC(=O)N(C)C)NC(=O)[C@@H](NC(=O)[C@H](COCCOCC[N+](C)(C)C)NC(=O)COCCOCCNC(=O)COCCOCCNC(=O)CC[C@H](NC(=O)CCCCCCCCCCCCC)C(=O)O)C(C)(C)SSC(C)(C)[C@@H](C(=O)N[C@@H](Cc2ccc(OCCOCCOCC[N+](C)(C)C)cc2)C(=O)N[C@@H](Cc2ccc3ccccc3c2)C(=O)NC2(C(=O)N[C@@H](CCCCN(C)C(C)=O)C(=O)N[C@@H](CC(N)=O)C(=O)N[C@@H](Cc3cccnc3)C(=O)N(C)CC(=O)N(C)C)CCOCC2)NC1=O)C(=O)O` (relative stereo) [compound 369, C14gEPEG2PEG2CO-APEG2Ser(S*)-Pen(3)-N(N(Me)2)-T-7MeW-K(PEG2PEG2gEC14)-Pen(3)-APEG3F-2Nal-THP-K(NMeAc)-N-3Pya-Sar-CON(Me)2] was 184 A^2. For `CC(=O)NCCCC[C@@H]1NC(=O)[C@H](Cc2c[nH]c3c(C)cccc23)NC(=O)[C@H]([C@@H](C)O)NC(=O)[C@H](CC(N)=O)NC(=O)[C@@H](NC(C)=O)C(C)(C)SSC(C)(C)[C@@H](C(=O)N[C@@H](Cc2ccc(OCC[N+](C)(C)C)cc2)C(=O)N[C@@H](Cc2ccc3ccccc3c2)C(=O)NC2(C(=O)N[C@@H](CCCCNC(C)=O)C(=O)N[C@@H](CC(N)=O)C(=O)N[C@@H](Cc3cccnc3)C(=O)N(C)CC(N)=O)CCOCC2)NC1=O` [compound 561, MeCO-Pen(3)-N-T-7MeW-K(Ac)-pen(3)-AEF(NMe3)-2Nal-THP-K(Ac)-N-3Pya-Sar-CONH2] the value was 163 A^2.
